Laboratory results as given in PMC11546786, “Designing Analogs of SAAP-148 with Enhanced Antimicrobial and Anti-LPS Activities” (International Journal of Molecular Sciences, 2024).

Tests used:
[1] = Reversed-phase HPLC retention time as measure of peptide hydrophobicity; type: physicochemical; conditions: retention time by reverse-phase HPLC, reflects hydrophobicity difference between analogues
Description: The physicochemical parameters crucial for the antimicrobial activity of AMPs have been identified, encompassing net charge, helicity, hydrophobicity, and amphipathicity. The hydropathicity, mean relative hydrophobic moment, and charge of peptides were predicted using the HeliQuest (https://heliquest.ipmc.cnrs.fr/ (accessed on 12 March 2024)). Lysine is a hydrophilic amino acid, and its substitution leads to a decrease in the hydrophobicity of the SAAP-148 analogue. The anticipated results are consistent, with the degree of reduction in […] varying depending on the position at which lysine is substituted (Table 2). The amphipathicity of the peptides, as denoted by the μH (mean relative hydrophobic moment), is elaborated on in Table 2. The hydrophobic moment of SAAP-148 analogues was decreased except for SAAP-10, which is on account of the substitution occurring on the18th residue. (Figure 1) The 18th residue of SAAP-148 is glutamine, a polar amino acid residue, located at the junction of the hydrophobic and hydrophilic surfaces of the SAAP-148 α-helix. […] The retention time data determined by reversed-phase high-performance liquid chromatography (RP-HPLC) reflects the hydrophobicity difference between peptide analogues. It is well documented that the formation of a hydrophobic-binding domain due to peptide secondary structure can affect peptide interactions with reversed-phase matrices. This effect was observed particularly for amphipathic α-helical peptides. Given this preferred binding domain, amphipathic α-helical peptides are considerably more retentive than non-amphipathic peptides with the same amino acid composition.
This phenomenon was particularly evident in the case of amphipathic α-helical peptides. […] This discrepancy may be attributed to the lack of a well-defined α-helical structure in SAAP-148 and its analogues (Figure S1).

[2] = tested on: Gram-negative bacteria (E. coli, P. aeruginosa, K. pneumoniae); assay: Geometric mean of MICs against Gram-negative bacteria; type: cell-based; set-up: unit not given here
Procedure: (§1) The antibacterial activities of the peptides against […] were evaluated using a modified version of the Clinical Laboratory and Standards Institute (CLSI) broth microdilution method, as previously described. Briefly, the bacteria were cultured in liquid LB medium (comprising 10 g/L tryptone, 5 g/L yeast extract, and 10 g/L NaCl) at 37 °C until reaching mid-log phase. Subsequently, the bacterial concentration was adjusted to 1 × 10^6 colony-forming units (CFU)/mL. The peptides were then diluted serially with phosphate-buffered saline (PBS), followed by the addition of 50 μL of the diluted peptides to 50 μL of the bacterial suspension in a 96-well plate (Corning Inc., Lowell, MA, USA). After incubating at 37 °C for 18 to 20 h, the absorbance of each well was measured using a multi-well microplate reader (SpectraMax M5; Molecular Devices, Sunnyvale, CA, USA) at 600 nm.

[3] = tested on: Gram-positive bacteria (S. aureus, S. epidermidis); assay: Geometric mean of MICs against Gram-positive bacteria; type: cell-based; set-up: unit not given here
Procedure: as §1

five bacterial strains = assay: MICs against all five bacterial strains (geometric mean, range); type: cell-based; set-up: unit not given here; conditions: geometric mean of MICs against all five bacterial strains
Procedure: as §1

BEAS-2B cells = assay: Membrane damage, PI staining and flow cytometry; type: cell-based; conditions: 6.25 μM peptide, 1 × 10^6 cells, 37 °C, 30 min, flow cytometry
Procedure: (§2) Propidium iodide (PI) was utilized as a marker for assessing the structural integrity of cell membranes and the occurrence of cell death. The impact of peptides on BEAS-2B cells, E. coli, and S. aureus was investigated by treating the cells with peptides followed by PI staining and flow cytometry (FACS) analysis to evaluate peptide-induced membrane damage. Table 5 presents the results of PI staining in BEAS-2B cells (1 × 10^6) following treatment with peptides at a concentration of 6.25 μM. […] FACS analysis at a peptide concentration of 6.25 μM was employed to determine the membrane damage caused by peptides in E. coli and S. aureus cells (Table 5).
(§3) Peptide-induced membrane damage was evaluated by quantifying the influx of propidium iodide (PI). BEAS-2B cells (1 × 10^6 cells in 50 μL) were exposed to a final concentration of 6.25 μM peptide and incubated at 37 °C for 30 min, followed by PBS washing and re-suspension in PI solution (dissolved in PBS) at a final concentration of 2 μg/mL. Bacteria were cultured to mid-log phase at 37 °C, then diluted to an OD600 of 0.5 in phosphate-buffered saline (PBS). […] The bacteria were harvested and re-suspended in PI solution, with fluorescence signal analysis conducted using flow cytometry (Cytomics FC 500, Beckman Coulter, Indianapolis, IN, USA).

E. coli = assay: Membrane damage, PI staining and flow cytometry; type: cell-based, Escherichia coli; conditions: 6.25 μM peptide, OD600 0.5 in PBS, 37 °C, 30 min, flow cytometry
Procedure: as §2, §3

S. aureus = assay: Membrane damage, PI staining and flow cytometry; type: cell-based, Staphylococcus aureus; conditions: 6.25 μM peptide, OD600 0.5 in PBS, 37 °C, 30 min, flow cytometry
Procedure: as §2, §3

[4] = CD spectra, secondary structure by BeStSel; type: physicochemical; conditions: 30 μM SDS as printed, 100 μM peptide, 25 °C
Procedure: CD spectra (Figure S1) were acquired using a JASCO J-1500 spectropolarimeter (JASCO Inc., Easton, MD, USA) in 0.1 cm pathlength cells under nitrogen at 25 °C. The spectra were recorded in the range of 190 to 250 nm at a peptide concentration of 100 μM in SDS. Secondary structure was determined using the BeStSel server. Hydropathicity, mean relative hydrophobic moment, and charge of peptides were predicted using the HeliQuest (https://heliquest.ipmc.cnrs.fr/ (accessed on 12 March 2024)). The 3D structure of SAAP-148 and its analogues (Figure S2) was predicted using PEP-FOLD4 servers (https://bioserv.rpbs.univ-paris-diderot.fr/services/PEP-FOLD4/ (accessed on 19 June 2024)).

CC[C@H](C)[C@H](NC(=O)[C@H](CCCCN)NC(=O)[C@H](CCC(=O)O)NC(=O)[C@H](CCCCN)NC(=O)[C@H](CO)NC(=O)[C@H](CCCCN)NC(=O)[C@H](CCCNC(=N)N)NC(=O)[C@H](Cc1ccccc1)NC(=O)[C@H](Cc1ccccc1)NC(=O)[C@H](CC(=O)O)NC(=O)CNC(=O)[C@H](CC(C)C)NC(=O)[C@@H](N)CC(C)C)C(=O)NCC(=O)N[C@@H](CCCCN)C(=O)N[C@@H](CCC(=O)O)C(=O)N[C@@H](Cc1ccccc1)C(=O)N[C@@H](CCCCN)C(=O)N[C@@H](CCCNC(=N)N)C(=O)N[C@H](C(=O)N[C@H](C(=O)N[C@@H](CCC(N)=O)C(=O)N[C@@H](CCCNC(=N)N)C(=O)N[C@H](C(=O)N[C@@H](CCCCN)C(=O)N[C@@H](CC(=O)O)C(=O)N[C@@H](Cc1ccccc1)C(=O)N[C@@H](CC(C)C)C(=O)N[C@@H](CCCNC(=N)N)C(=O)N[C@@H](CC(N)=O)C(=O)N[C@@H](CC(C)C)C(=O)N[C@H](C(=O)N1CCC[C@H]1C(=O)N[C@@H](CCCNC(=N)N)C(=O)N[C@H](C(=O)N[C@@H](CCC(=O)O)C(=O)N[C@@H](CO)C(=O)O)[C@@H](C)O)C(C)C)[C@@H](C)CC)C(C)C)[C@@H](C)CC [LL-37, reference compound]
Rt [1]: 11.125 min
GM to G− [2]: 12.49
GM to G+ [3]: 100
MIC (GM) (five bacterial strains): 28.72
proportion of PI-positive cells, BEAS-2B (BEAS-2B cells): 31.2%
proportion of PI-positive cells, E. coli (E. coli): 78.9%
proportion of PI-positive cells, S. aureus (S. aureus): 46.9%
Others [4]: 0%
Turn [4]: 0%
α-Helix [4]: 100%
β-Antiparallel [4]: 0%
β-Parallel [4]: 0%
